Reference: ChEMBL document CHEMBL1909046, “DrugMatrix in vitro pharmacology data”

What was measured:
Glucocorticoid receptor = biological target: T1, Glucocorticoid receptor (Homo sapiens, UniProt P04150); conditions: hela s3; further: in other assays of this panel Not Active means under 50% inhibition at 10 µM
T1 sequence (P04150 whole entry): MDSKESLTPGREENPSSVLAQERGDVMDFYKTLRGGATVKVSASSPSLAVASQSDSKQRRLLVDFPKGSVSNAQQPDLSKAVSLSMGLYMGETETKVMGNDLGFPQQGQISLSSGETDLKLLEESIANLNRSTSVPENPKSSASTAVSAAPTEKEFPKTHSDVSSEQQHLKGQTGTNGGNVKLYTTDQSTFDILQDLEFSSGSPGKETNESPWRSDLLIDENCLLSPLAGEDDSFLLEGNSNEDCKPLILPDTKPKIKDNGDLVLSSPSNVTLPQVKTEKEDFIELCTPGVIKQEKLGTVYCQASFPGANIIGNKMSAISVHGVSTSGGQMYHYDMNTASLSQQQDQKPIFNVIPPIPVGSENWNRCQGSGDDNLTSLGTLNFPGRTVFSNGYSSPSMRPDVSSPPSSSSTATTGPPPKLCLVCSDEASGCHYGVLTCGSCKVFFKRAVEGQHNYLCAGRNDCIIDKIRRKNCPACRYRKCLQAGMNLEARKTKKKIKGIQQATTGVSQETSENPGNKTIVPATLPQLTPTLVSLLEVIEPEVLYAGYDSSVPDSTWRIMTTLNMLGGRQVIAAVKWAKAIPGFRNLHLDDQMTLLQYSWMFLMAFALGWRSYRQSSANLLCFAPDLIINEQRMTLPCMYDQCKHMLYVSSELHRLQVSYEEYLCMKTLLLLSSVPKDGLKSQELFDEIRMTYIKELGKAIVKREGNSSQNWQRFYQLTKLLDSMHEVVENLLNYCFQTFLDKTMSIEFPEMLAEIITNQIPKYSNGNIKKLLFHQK

Cytochrome P450 2C19 = Cytochrome P450 2C19 (Homo sapiens, UniProt P33261); conditions: bti-tn-5b1-4; further: in other assays of this panel Not Active means under 50% inhibition at 10 µM
Cytochrome P450 2C19, sequence (P33261 whole entry): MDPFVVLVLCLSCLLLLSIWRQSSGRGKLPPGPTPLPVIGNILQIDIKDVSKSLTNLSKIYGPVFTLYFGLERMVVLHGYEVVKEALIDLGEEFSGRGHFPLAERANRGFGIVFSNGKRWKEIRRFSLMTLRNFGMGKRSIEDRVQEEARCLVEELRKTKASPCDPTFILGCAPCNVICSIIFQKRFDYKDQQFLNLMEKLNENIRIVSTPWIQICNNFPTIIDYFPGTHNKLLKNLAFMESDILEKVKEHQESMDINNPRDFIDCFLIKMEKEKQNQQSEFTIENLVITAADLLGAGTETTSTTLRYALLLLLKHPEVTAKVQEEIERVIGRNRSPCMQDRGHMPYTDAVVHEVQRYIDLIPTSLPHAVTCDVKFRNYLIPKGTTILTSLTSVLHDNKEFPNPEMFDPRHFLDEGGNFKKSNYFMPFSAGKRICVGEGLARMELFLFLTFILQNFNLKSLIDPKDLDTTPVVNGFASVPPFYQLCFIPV

[1] = biological target: Sodium-dependent noradrenaline transporter (Homo sapiens, UniProt P23975); experiment: DRUGMATRIX: Norepinephrine Transporter radioligand binding (ligand: [125I] RTI-55); format: cell membranes, MDCK, Membrane; conditions: mdck; Not Active = under 50% inhibition at 10 µM
Sodium-dependent noradrenaline transporter, sequence (P23975 whole entry): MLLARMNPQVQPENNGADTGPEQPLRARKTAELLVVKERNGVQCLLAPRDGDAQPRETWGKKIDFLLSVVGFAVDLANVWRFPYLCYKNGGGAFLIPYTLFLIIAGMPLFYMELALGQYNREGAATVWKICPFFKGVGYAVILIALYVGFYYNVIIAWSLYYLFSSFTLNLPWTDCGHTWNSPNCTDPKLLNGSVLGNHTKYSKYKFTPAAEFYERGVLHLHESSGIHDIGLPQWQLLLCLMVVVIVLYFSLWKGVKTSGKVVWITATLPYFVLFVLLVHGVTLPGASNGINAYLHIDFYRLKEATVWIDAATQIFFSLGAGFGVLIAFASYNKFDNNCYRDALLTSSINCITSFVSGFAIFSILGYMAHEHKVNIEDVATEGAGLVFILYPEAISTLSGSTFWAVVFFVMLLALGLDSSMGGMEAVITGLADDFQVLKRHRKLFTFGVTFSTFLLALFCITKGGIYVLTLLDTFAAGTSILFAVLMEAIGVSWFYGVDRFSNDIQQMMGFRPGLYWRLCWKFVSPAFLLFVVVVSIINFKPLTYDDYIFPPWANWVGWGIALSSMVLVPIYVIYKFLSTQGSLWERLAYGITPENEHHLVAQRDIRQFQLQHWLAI

Cytochrome P450 2D6 = Cytochrome P450 2D6 (Homo sapiens, UniProt P10635); conditions: bti-tn-5b1-4; further: in other assays of this panel Not Active means under 50% inhibition at 10 µM
Cytochrome P450 2D6, sequence (P10635 whole entry): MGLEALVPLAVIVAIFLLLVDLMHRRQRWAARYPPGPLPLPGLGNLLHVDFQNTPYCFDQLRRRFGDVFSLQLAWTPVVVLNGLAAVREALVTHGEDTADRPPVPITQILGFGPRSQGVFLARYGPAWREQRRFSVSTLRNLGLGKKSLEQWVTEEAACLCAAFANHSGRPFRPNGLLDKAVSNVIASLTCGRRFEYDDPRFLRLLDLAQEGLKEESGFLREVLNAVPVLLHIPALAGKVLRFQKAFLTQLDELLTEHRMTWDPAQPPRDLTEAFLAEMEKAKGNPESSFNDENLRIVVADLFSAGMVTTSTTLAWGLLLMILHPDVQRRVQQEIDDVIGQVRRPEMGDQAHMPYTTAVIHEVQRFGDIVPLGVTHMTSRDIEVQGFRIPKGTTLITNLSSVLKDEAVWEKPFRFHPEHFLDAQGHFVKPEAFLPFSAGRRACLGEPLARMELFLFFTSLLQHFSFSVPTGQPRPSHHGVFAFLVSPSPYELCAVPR

[2] = biological target: Voltage-gated inwardly rectifying potassium channel KCNH2 (Homo sapiens, UniProt Q12809); conditions: hek293; further: in other assays of this panel Not Active means under 50% inhibition at 10 µM
Voltage-gated inwardly rectifying potassium channel KCNH2, sequence (Q12809 whole entry): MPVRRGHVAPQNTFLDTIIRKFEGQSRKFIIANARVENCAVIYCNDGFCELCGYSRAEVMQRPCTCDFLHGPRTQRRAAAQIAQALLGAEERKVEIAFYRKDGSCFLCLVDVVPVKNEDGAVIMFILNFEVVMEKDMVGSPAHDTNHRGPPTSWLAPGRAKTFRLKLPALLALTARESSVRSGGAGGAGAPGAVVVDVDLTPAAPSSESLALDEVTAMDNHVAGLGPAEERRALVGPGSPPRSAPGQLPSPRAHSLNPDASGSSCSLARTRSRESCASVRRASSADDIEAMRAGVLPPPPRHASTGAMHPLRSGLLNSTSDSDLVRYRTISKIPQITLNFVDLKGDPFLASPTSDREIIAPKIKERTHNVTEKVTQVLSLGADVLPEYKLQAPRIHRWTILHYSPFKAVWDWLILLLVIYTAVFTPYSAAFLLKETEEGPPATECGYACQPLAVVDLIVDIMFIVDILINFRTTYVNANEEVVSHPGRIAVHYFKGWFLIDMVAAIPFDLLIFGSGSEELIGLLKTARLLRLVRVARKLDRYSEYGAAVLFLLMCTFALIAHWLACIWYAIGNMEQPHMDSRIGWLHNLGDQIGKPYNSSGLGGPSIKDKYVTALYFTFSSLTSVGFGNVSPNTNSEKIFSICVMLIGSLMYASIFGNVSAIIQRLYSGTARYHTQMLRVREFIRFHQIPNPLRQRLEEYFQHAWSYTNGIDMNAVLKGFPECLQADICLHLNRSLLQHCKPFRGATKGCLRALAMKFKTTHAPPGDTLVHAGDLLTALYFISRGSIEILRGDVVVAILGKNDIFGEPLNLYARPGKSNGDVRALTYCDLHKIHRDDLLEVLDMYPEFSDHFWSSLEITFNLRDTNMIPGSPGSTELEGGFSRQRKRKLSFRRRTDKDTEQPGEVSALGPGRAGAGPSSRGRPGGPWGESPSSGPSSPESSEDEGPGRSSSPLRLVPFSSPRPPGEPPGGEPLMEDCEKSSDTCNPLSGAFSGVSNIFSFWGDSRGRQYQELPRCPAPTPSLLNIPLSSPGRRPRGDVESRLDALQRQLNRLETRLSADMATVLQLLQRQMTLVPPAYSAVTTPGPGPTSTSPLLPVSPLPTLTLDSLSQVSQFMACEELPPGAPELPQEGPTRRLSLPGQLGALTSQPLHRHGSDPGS

Cytochrome P450 3A4 = Cytochrome P450 3A4 (Homo sapiens, UniProt P08684); conditions: bti-tn-5b1-4; further: in other assays of this panel Not Active means under 50% inhibition at 10 µM
Cytochrome P450 3A4, sequence (P08684 whole entry): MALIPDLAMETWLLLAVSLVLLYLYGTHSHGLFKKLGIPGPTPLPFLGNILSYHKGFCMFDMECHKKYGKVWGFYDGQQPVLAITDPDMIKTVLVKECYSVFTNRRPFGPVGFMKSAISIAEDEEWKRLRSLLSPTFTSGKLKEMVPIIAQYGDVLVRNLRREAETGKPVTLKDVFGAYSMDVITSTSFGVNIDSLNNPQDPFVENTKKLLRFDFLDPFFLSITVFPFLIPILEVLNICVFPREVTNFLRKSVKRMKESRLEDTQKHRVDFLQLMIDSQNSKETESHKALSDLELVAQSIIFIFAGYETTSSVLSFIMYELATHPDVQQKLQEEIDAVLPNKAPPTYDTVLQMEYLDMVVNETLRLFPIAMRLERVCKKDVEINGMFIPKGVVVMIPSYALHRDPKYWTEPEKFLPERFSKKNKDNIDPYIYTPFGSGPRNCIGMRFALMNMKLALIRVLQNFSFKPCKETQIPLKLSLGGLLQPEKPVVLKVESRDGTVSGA

Cytochrome P450 1A2 = biological target: T2, Cytochrome P450 1A2 (Homo sapiens, UniProt P05177); conditions: bti-tn-5b1-4; further: in other assays of this panel Not Active means under 50% inhibition at 10 µM
T2 sequence (P05177 whole entry): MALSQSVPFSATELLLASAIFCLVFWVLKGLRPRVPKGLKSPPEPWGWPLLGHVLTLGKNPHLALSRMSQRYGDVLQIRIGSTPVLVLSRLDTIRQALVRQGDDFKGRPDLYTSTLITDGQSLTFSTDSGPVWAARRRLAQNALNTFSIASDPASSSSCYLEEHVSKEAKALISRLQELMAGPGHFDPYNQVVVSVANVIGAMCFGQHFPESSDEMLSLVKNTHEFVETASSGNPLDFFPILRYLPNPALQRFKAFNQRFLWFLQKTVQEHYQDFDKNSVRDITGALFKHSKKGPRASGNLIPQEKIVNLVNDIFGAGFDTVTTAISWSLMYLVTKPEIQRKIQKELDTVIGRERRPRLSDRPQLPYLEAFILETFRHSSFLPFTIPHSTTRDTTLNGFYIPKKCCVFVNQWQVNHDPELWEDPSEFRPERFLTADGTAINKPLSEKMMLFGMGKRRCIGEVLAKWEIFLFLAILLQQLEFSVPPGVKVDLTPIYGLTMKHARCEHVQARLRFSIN

NCCCC[C@H](N[C@@H](CCc1ccccc1)C(=O)O)C(=O)N1CCC[C@H]1C(=O)O [LISINOPRIL ANHYDROUS]
Not Active: IC50 (Glucocorticoid receptor) | IC50 (Cytochrome P450 2C19) | Ki (Cytochrome P450 2C19) | IC50 [1] | IC50 (Cytochrome P450 2D6) | Ki (Cytochrome P450 2D6)

CN1[C@@H]2CC[C@H]1C[C@@H](OC(=O)c1c[nH]c3ccccc13)C2 [TROPISETRON]
Not Active: IC50 [2] | Ki [2] | IC50 (Cytochrome P450 3A4) | Ki (Cytochrome P450 3A4) | IC50 (Cytochrome P450 1A2) | Ki (Cytochrome P450 1A2) | IC50 (Cytochrome P450 2C19) | Ki (Cytochrome P450 2C19) | IC50 [1] | IC50 (Cytochrome P450 2D6) | Ki (Cytochrome P450 2D6)

CC(=O)[C@H]1CC[C@H]2[C@@H]3CCC4=CC(=O)CC[C@]4(C)[C@H]3CC[C@]12C [PROGESTERONE]
Not Active: IC50 (Cytochrome P450 3A4) | Ki (Cytochrome P450 3A4) | IC50 (Cytochrome P450 1A2) | Ki (Cytochrome P450 1A2) | IC50 (Cytochrome P450 2C19) | Ki (Cytochrome P450 2C19) | IC50 [1] | IC50 (Cytochrome P450 2D6) | Ki (Cytochrome P450 2D6)

C[C@](N)(Cc1ccc(O)cc1)C(=O)O [METYROSINE]
Not Active: IC50 [2] | Ki [2] | IC50 (Cytochrome P450 3A4) | Ki (Cytochrome P450 3A4) | IC50 (Glucocorticoid receptor) | IC50 (Cytochrome P450 1A2) | Ki (Cytochrome P450 1A2) | IC50 (Cytochrome P450 2C19) | Ki (Cytochrome P450 2C19) | IC50 [1] | IC50 (Cytochrome P450 2D6) | Ki (Cytochrome P450 2D6)

Cc1cc(NS(=O)(=O)c2ccc(N)cc2)no1 [SULFAMETHOXAZOLE]
Not Active: IC50 (Glucocorticoid receptor) | IC50 [1]

CN(C)CCCN1c2ccccc2CCc2ccc(Cl)cc21 [CLOMIPRAMINE]
Not Active: IC50 [2] | Ki [2] | IC50 (Cytochrome P450 3A4) | Ki (Cytochrome P450 3A4) | IC50 (Glucocorticoid receptor) | IC50 (Cytochrome P450 1A2) | Ki (Cytochrome P450 1A2) | IC50 (Cytochrome P450 2C19) | Ki (Cytochrome P450 2C19)

Cc1ccc(C(=O)C(C)CN2CCCCC2)cc1 (stereo not drawn) [TOLPERISONE]
Not Active: IC50 [2] | Ki [2] | IC50 (Cytochrome P450 3A4) | Ki (Cytochrome P450 3A4) | IC50 (Cytochrome P450 1A2) | Ki (Cytochrome P450 1A2) | IC50 (Cytochrome P450 2C19) | Ki (Cytochrome P450 2C19) | IC50 [1] | IC50 (Cytochrome P450 2D6) | Ki (Cytochrome P450 2D6)

COC(=O)C1=C(C)NC(C)=C(C(=O)OC)C1c1ccccc1[N+](=O)[O-] [NIFEDIPINE]
Not Active: IC50 (Glucocorticoid receptor) | IC50 [1]

COC(=O)c1ccc(O)cc1 [METHYLPARABEN]
Not Active: IC50 [2] | Ki [2] | IC50 (Cytochrome P450 3A4) | Ki (Cytochrome P450 3A4) | IC50 (Glucocorticoid receptor) | IC50 (Cytochrome P450 1A2) | Ki (Cytochrome P450 1A2) | IC50 (Cytochrome P450 2C19) | Ki (Cytochrome P450 2C19) | IC50 (Cytochrome P450 2D6) | Ki (Cytochrome P450 2D6)

COc1ccc(C(CN(C)C)C2(O)CCCCC2)cc1 (stereo not drawn) [VENLAFAXINE]
Not Active: IC50 [2] | Ki [2] | IC50 (Cytochrome P450 3A4) | Ki (Cytochrome P450 3A4) | IC50 (Cytochrome P450 1A2) | Ki (Cytochrome P450 1A2) | IC50 (Cytochrome P450 2C19) | Ki (Cytochrome P450 2C19) | IC50 (Cytochrome P450 2D6) | Ki (Cytochrome P450 2D6)

CC1=C(/C=C/C(C)=C/C=C/C(C)=C\C(=O)O)C(C)(C)CCC1 [ISOTRETINOIN]
Not Active: IC50 (Cytochrome P450 3A4) | Ki (Cytochrome P450 3A4) | IC50 (Glucocorticoid receptor) | IC50 (Cytochrome P450 1A2) | Ki (Cytochrome P450 1A2) | IC50 (Cytochrome P450 2C19) | Ki (Cytochrome P450 2C19) | IC50 [1] | IC50 (Cytochrome P450 2D6) | Ki (Cytochrome P450 2D6)

CCOC(=O)[C@H](CCc1ccccc1)N[C@@H](C)C(=O)N1[C@H](C(=O)O)C[C@@H]2CCC[C@@H]21
Not Active: IC50 [2] | Ki [2] | IC50 (Glucocorticoid receptor) | IC50 (Cytochrome P450 1A2) | Ki (Cytochrome P450 1A2) | IC50 (Cytochrome P450 2C19) | Ki (Cytochrome P450 2C19) | IC50 [1] | IC50 (Cytochrome P450 2D6) | Ki (Cytochrome P450 2D6)

CN[C@@H]1[C@@H](O)[C@@H](O[C@@H]2[C@@H](O)[C@H](O[C@H]3OC(CN)=CC[C@H]3N)[C@@H](N)C[C@H]2N)OC[C@]1(C)O [SISOMICIN]
Not Active: IC50 [2] | Ki [2] | IC50 (Glucocorticoid receptor) | IC50 [1]

COc1ccc(CCN2CCC(Nc3nc4ccccc4n3Cc3ccc(F)cc3)CC2)cc1 [ASTEMIZOLE]
Not Active: IC50 (Cytochrome P450 3A4) | Ki (Cytochrome P450 3A4) | IC50 (Glucocorticoid receptor) | IC50 (Cytochrome P450 1A2) | Ki (Cytochrome P450 1A2) | IC50 (Cytochrome P450 2C19) | Ki (Cytochrome P450 2C19) | IC50 (Cytochrome P450 2D6) | Ki (Cytochrome P450 2D6)

COC(=O)[C@@H]1[C@H]2C[C@H]3c4[nH]c5ccccc5c4CCN3C[C@@H]2CC[C@@H]1O [YOHIMBINE]
Not Active: IC50 [2] | Ki [2] | IC50 [1]

Nc1nnc(-c2cccc(Cl)c2Cl)c(N)n1 [LAMOTRIGINE]
Not Active: IC50 (Cytochrome P450 1A2) | Ki (Cytochrome P450 1A2) | IC50 (Cytochrome P450 2C19) | Ki (Cytochrome P450 2C19) | IC50 (Cytochrome P450 2D6) | Ki (Cytochrome P450 2D6)

CC(C)(C)NCC(O)c1cc(O)cc(O)c1 (stereo not drawn) [TERBUTALINE]
Not Active: IC50 [2] | Ki [2] | IC50 (Cytochrome P450 3A4) | Ki (Cytochrome P450 3A4) | IC50 (Cytochrome P450 1A2) | Ki (Cytochrome P450 1A2) | IC50 (Cytochrome P450 2C19) | Ki (Cytochrome P450 2C19) | IC50 [1] | IC50 (Cytochrome P450 2D6) | Ki (Cytochrome P450 2D6)

CC(C)(C)NC(=O)[C@@H]1CN(Cc2cccnc2)CCN1C[C@@H](O)C[C@@H](Cc1ccccc1)C(=O)N[C@H]1c2ccccc2C[C@H]1O.O
Not Active: IC50 [2] | Ki [2] | IC50 (Cytochrome P450 1A2) | Ki (Cytochrome P450 1A2) | IC50 (Cytochrome P450 2C19) | Ki (Cytochrome P450 2C19) | IC50 [1] | IC50 (Cytochrome P450 2D6) | Ki (Cytochrome P450 2D6)

Nc1ccc(S(N)(=O)=O)cc1 [SULFANILAMIDE]
Not Active: IC50 (Glucocorticoid receptor) | IC50 [1]

O=C(CCCN1CCC(O)(c2ccc(Cl)cc2)CC1)c1ccc(F)cc1 [HALOPERIDOL]
Not Active: IC50 [2] | Ki [2] | IC50 (Cytochrome P450 3A4) | Ki (Cytochrome P450 3A4) | IC50 (Glucocorticoid receptor) | IC50 (Cytochrome P450 1A2) | Ki (Cytochrome P450 1A2) | IC50 (Cytochrome P450 2C19) | Ki (Cytochrome P450 2C19) | IC50 (Cytochrome P450 2D6) | Ki (Cytochrome P450 2D6)
